The values that follow come from patent US20130089641A1.

The conditions of series [1]: background, researches; cited from earlier work.
The conditions of series [2]: aqueous solution of ferrous sulfate with 100 ppm iron ions.
From the text: (§1) In which, “in vitro digestion and dialysis” is used in the experiments for determining the releasable iron in human body after the foods are digested.
Firstly, iron(II) sulfate heptahydrate is used as a standard in the experiment, and the in vitro digestion and dialysis of the iron(II) sulfate heptahydrate is done.
For series [3] the following is noted: soymilk with 20 ppm iron as ferrous sulfate.
From the text: as §1
Next, in the second experiment, it respectively adds different additive dosage of vitamin C, sodium vitamin C, potassium vitamin C, and calcium vitamin C into the soymilk with 20 ppm ferrous sulfate for testing the effect of encouraging the release of iron ions.
Series [4] is described as follows: second experiment: releasable iron in soymilk with iron salts added by concentration gradients.
From the text: as §1
Series [5] in a line: NaVC consumption on ultra heat treat of the formulated soymilk powder. Format: physicochemical. An excerpt:
As shown in Table (26), the formulated soymilk powder consists of NaVC (sodium vitamin C), lactic acid bacteria, saccharomycete, and maltodextrin, in which the lactic acid bacteria is NTU 101 lactic acid bacteria powder, the saccharomycete is yeast powder with vitamin B complex. Moreover, it must note that, when manufacturing the formulated soymilk powder, it must pre-add 25% NaVC in the formulated soymilk powder because there has 25% NaVC consumption when processing ultra heat treat of the formulated soymilk powder.

As to heme iron, in series [1], the average absorption rate is listed as 25%.

On to `O.O.O.O.O.O.O.O=S(=O)([O-])[O-].[Fe+2]` [ferrous sulfate, iron(II) sulfate heptahydrate], for which, in series [2], the “iron ions naturally inhibited” value was 49.61%. In addition, in series [2], the “iron ions released after processing by gastric and intestinal fluid” value amounted to 50.39%. The “releasable iron concentration before adding the ascorbic acid iron” value in series [3] stood at 1.90 ppm. Further, the “the most effective additive dosage for ascorbic acid iron” value in series [3] came out at 100 mg/100 ml. The “release promoting rate of iron” value in series [3] (after/before adding the ascorbic acid iron) was found to be 389%. Further, the “releasable iron concentration after adding the ascorbic acid iron” value in series [3] (at the most effective additive dosage 100) came out at 7.54 ppm. The “concentration of releasable iron” value in series [4] (additive dosage of iron 10 ppm) is recorded as 1.56 ppm; in series [4] (additive dosage of iron 20 ppm), 1.76 ppm; in series [4] (additive dosage of iron 30 ppm) it was 2.47 ppm; in series [4] (additive dosage of iron 40 ppm), 2.62 ppm; in series [4] (additive dosage of iron 50 ppm), 2.75 ppm; in series [4] (additive dosage of iron 60 ppm), 3.27 ppm. Further, the “concentration of releasable iron” value in series [4] (additive dosage of iron 70 ppm) was determined as 3.72 ppm. Further, the initially inhibiting concentration in series [4] (point where releasable iron starts to rise with additive dosage) is reported as 20 ppm.

On to `O=C1O[C@H]([C@@H](O)CO)C([O-])=C1O.[Na+]` [NaVC, sodium ascorbate], for which the “NaVC consumption when processing ultra heat treat” value in series [5] is 25%.
